Assay results taken from PubChem BioAssay (NCI).
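How tested: cells in 96-well plates exposed to compound for 48 hours at five concentrations. TGI denotes the concentration required for complete inhibition of growth.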 Where a SMILES comes first, the peptide text is derived from it. The star is where a group is joined. Boc = CC(C)(C)OC(=O)*; OBn = c1ccc(CO*)cc1; Bn = c1ccc(C*)cc1

Legend:
Experiment in all cases: NCI-60 cell line screen, 48 h
HCC-2998 colon = test system: HCC-2998 colon
HOP-62 NSCLC = test system: HOP-62 NSCLC
K-562 leukemia = test system: K-562 leukemia
MALME-3M melanoma = test system: MALME-3M melanoma
MDA-MB-231 breast = test system: MDA-MB-231 breast
MDA-MB-435 = test system: MDA-MB-435
NCI-H226 lung = test system: NCI-H226 lung
NCI/ADR-RES ovarian = test system: NCI/ADR-RES ovarian
SF-268 CNS = test system: SF-268 CNS
SNB-19 CNS = test system: SNB-19 CNS
CCRF-CEM leukemia = test system: CCRF-CEM leukemia
HL-60(TB) leukemia = test system: HL-60(TB) leukemia

SMILES	TGI (HCC-2998 colon) [µM]	TGI (HOP-62 NSCLC) [µM]	TGI (K-562 leukemia) [µM]	TGI (MALME-3M melanoma) [µM]	TGI (MDA-MB-231 breast) [µM]	TGI (MDA-MB-435) [µM]	TGI (NCI-H226 lung) [µM]	TGI (NCI/ADR-RES ovarian) [µM]	TGI (SF-268 CNS) [µM]	TGI (SNB-19 CNS) [µM]	TGI (CCRF-CEM leukemia) [µM]	TGI (HL-60(TB) leukemia) [µM]
COC(=O)CP1(=O)OC2C(C3CCC2(C)C3(C)C)N1c1cc(C(F)(F)F)cc(C(F)(F)F)c1 (stereo not drawn)	55.2	85.7	68.3	58.1	43.7	60.6	71.7	55.9	82.1	> 100	–	–
CC1(C)COC(c2cccc(C3=NC(C)(C)CO3)c2)=N1	> 100	> 100	> 100	> 100	> 100	> 100	> 100	> 100	> 100	> 100	–	–
Cc1cc2nc3c(C#N)c(-c4ccccc4)/c(=C\Nc4cccc(C(F)(F)F)c4)c(=O)n3c2cc1C	> 100	66.9	–	> 100	> 100	> 100	> 100	> 100	> 100	> 100	> 100	–
CCC(=O)O[C@@H]1C2C(OC(C)=O)C34COC(C)([C@@H]3C3C(C[C@]3(C)OC(C)=O)[C@@H](OC(=O)c3ccccc3)C4=O)[C@H](OC(C)=O)[C@@]2(OC(C)=O)C[C@@H]1C (stereo partly drawn)	> 100	> 100	–	> 100	–	–	41.4	–	> 100	45.8	36.8	30
O=c1[nH]c2ccc(CC(=S)N3CCN(c4ccccc4)CC3)cc2s1	–	50.1	> 100	55.5	> 100	> 100	69.6	69.3	> 100	> 100	> 100	> 100
CC(=O)OC(C)(C)C1CCC(C)(C(O)COc2ccc(CCNC(=O)c3ccccc3)cc2)O1 (stereo not drawn)	–	> 100	–	> 100	–	–	–	–	> 100	> 100	> 100	67.8
CCOC(=O)Cc1csc(/N=C\c2c(O)c3ccccc3oc2=O)n1	–	75.9	–	24.3	–	85.4	97.8	64	> 100	> 100	85.9	7.43
CC(=O)c1nc2ccccc2n1CC(=O)c1ccc([N+](=O)[O-])cc1	–	17.6	> 100	33.2	> 100	> 100	57.9	49.2	> 100	74.2	> 100	> 100
CC(=O)OCCOCNC(=S)N/N=C(\C)c1ccco1	> 100	> 100	> 100	> 100	–	–	> 100	–	> 100	> 100	> 100	–
CCOC(=O)[C@H]1Nc2ccc(O)cc2C2c3ccccc3CC21 (stereo partly drawn)	> 100	> 100	> 100	> 100	–	–	> 100	–	> 100	> 100	–	–
CC(=O)NC1C(OCC(=O)NC(C)C(=O)NC(CCC(=O)NCCCCCNc2ccc([N+](=O)[O-])c3[nH]c4ccccc4c(=O)c23)C(N)=O)C(O)C(CO)OC1(C)OCc1ccccc1 (stereo not drawn)	> 50	> 50	> 50	26.9	31.4	> 50	> 50	> 50	> 50	> 50	> 50	–
COc1ccc(N(C(=O)OC(C)(C)C)[C@@H]2C(C)=C[C@H]([S@@](=O)c3ccc(C)cc3)[C@@H]3C(=O)N(C)C(=O)[C@@H]32)cc1	–	64.2	> 100	71.8	46.4	37.9	34.6	52.1	33.9	51.5	> 100	47.5
Cc1cccc(Nc2cn(CCOc3ccccc3)c(=O)[nH]c2=O)c1	91.6	> 100	> 100	–	–	> 100	–	9.06	> 100	> 100	> 100	–
COc1ccc2cc(C(=O)NCCc3ccccc3)ccc2c1OC	> 100	75.3	> 100	> 100	87.4	> 100	> 100	> 100	> 100	> 100	–	–
COc1cc(O)c(C(=O)/C=C/c2ccc(O)cc2)cc1Oc1ccc(C(=O)/C=C/c2ccc(O)cc2)c(O)c1	–	9.17	10.7	6.37	9.75	11.8	–	9.55	14.2	25.1	33.8	> 100
CC(C)CC(NC(=O)C(Cc1ccccc1)NC(=O)C(COCc1ccccc1)NC(=O)OC(C)(C)C)C(=O)OCc1ccccc1 (stereo not drawn) (Boc-Ser(Bn)-Phe-Leu-OBn; configuration not given here)	27.8	> 100	45.2	> 100	93	–	–	> 100	43	> 100	63.7	15.3
CC(C)(C)NNc1c([N+](=O)[O-])cnn(-c2ccccc2)c1=O	11.8	22.3	2.02	11.1	–	3.27	14.7	–	31	22.7	3.4	5.24
OC(Cn1cncn1)(Cn1cncn1)c1ccc(Cl)cc1Cl	–	> 100	> 100	> 100	–	–	> 100	–	> 100	–	> 100	> 100
CC1OC(OP(=O)(OCc2ccccc2)OCc2ccccc2)C(OC(=O)c2ccccc2)C(OC(=O)c2ccccc2)C1I (stereo not drawn)	> 100	> 100	> 100	> 100	–	–	–	–	> 100	> 100	> 100	49.4
CC(=O)OC1COC(N2C(=O)C(=O)c3cc(Br)c([N+](=O)[O-])cc32)C(OC(C)=O)C1OC(C)=O (stereo not drawn)	> 100	> 100	72.4	> 100	–	–	> 100	–	> 100	> 100	89.2	> 100
CCOC(=O)Nc1ccc(S(=O)(=O)Nc2ccc(Br)cc2)cc1	–	86.7	34.4	> 100	93.5	> 100	–	> 100	> 100	> 100	> 100	> 100

SMILES	TGI (HCC-2998 colon) [µM]	TGI (HOP-62 NSCLC) [µM]	TGI (K-562 leukemia) [µM]	TGI (MALME-3M melanoma) [µM]	TGI (MDA-MB-231 breast) [µM]	TGI (MDA-MB-435) [µM]	TGI (NCI-H226 lung) [µM]	TGI (NCI/ADR-RES ovarian) [µM]	TGI (SF-268 CNS) [µM]	TGI (SNB-19 CNS) [µM]	TGI (CCRF-CEM leukemia) [µM]	TGI (HL-60(TB) leukemia) [µM]
CCC1OC2C(CC=C(C)C)=C3OC(C)(O)C(C)(CC)C(O)C3=C3OC(=O)C=C1C32 (stereo not drawn)	> 100	–	> 100	–	75.5	> 100	> 100	> 100	> 100	> 100	> 100	–
Cn1cc(C(=O)C2CCCCC2)ccc1=O	> 100	> 100	> 100	> 100	–	–	> 100	–	> 100	> 100	> 100	> 100
NC12c3c4cccc3Oc3cccc(c31)Oc1cccc(c12)O4	–	> 50	> 50	–	> 50	> 50	> 50	> 50	> 50	> 50	> 50	> 50
C[C@H](NC(=O)OC1C2C=CC(O)C1CC2)c1ccccc1 (stereo partly drawn)	> 100	> 100	> 100	> 100	–	–	> 100	–	> 100	> 100	> 100	> 100
c1ccc(/C(=N/Nc2cnccn2)c2ncccn2)cc1	> 100	> 100	> 100	–	> 100	> 100	–	> 100	> 100	> 100	> 100	–
CCc1nnc2sc(-c3ccc(-c4ccc(Cl)cc4Cl)o3)nn12	–	> 100	> 100	> 100	> 100	> 100	> 100	> 100	> 100	> 100	> 100	> 100
Nc1nc(Cl)cc(NCC2(CO)CC(CCCCc3ccccc3)C2)n1 (stereo not drawn)	> 100	> 100	> 100	> 100	> 100	> 100	> 100	–	> 100	> 100	> 100	38.3
N=C(/C=C/c1ccc(-c2cn3cc(/C=C/C(=N)N4CCOCC4)ccc3n2)cc1)N1CCOCC1	> 100	> 100	> 100	> 100	> 100	> 100	> 100	> 100	> 100	> 100	–	–
CC(C)=NN/C(=N\S(=O)(=O)c1cc(Cl)c(Oc2ccc([N+](=O)[O-])cc2Cl)c(Cl)c1)Nc1ccc(Cl)cc1	–	> 100	> 100	> 100	> 100	> 100	> 100	> 100	> 100	> 100	> 100	> 100
Fc1ccc(C(=NCc2ccccc2)N2CCOCC2)cc1	–	> 100	> 100	> 100	> 100	> 100	> 100	> 100	> 100	> 100	> 100	> 100
O=Cc1cc(O)c(O)c(O)c1-c1c(C=O)cc(O)c(O)c1O	> 100	> 100	> 100	> 100	–	–	> 100	–	> 100	> 100	> 100	> 100
NS(=O)(=O)c1ccc(CNC(=S)NC(=O)Nc2ccc(Cl)c(Cl)c2)cc1	–	38.3	39.5	57.1	25.5	–	–	41.1	52.8	44.3	43.4	–
Cc1c(Cl)cccc1NC(=O)C(=O)C1C(=O)NC(=O)NC1=O	> 100	> 100	> 100	> 100	–	–	> 100	–	> 100	> 100	> 100	> 100
CCOC(=O)/C(O)=C(\C=N\C(=S)Nc1ccc(Cl)c(Cl)c1)C(=O)OCC	–	> 100	–	> 100	> 100	> 100	> 100	> 100	> 100	> 100	> 100	59.7
CC(C)(C)[Si](C)(C)OCC1OC(n2ccc(=O)[nH]c2=O)C(O[Si](C)(C)C(C)(C)C)/C1=N/O (stereo not drawn)	14.8	17	15.7	–	54.6	9.95	9.24	8.79	–	18.1	27.3	–
Brc1ccc(-c2ccc(-c3ccc(Br)s3)s2)s1	> 100	> 100	> 100	–	–	> 100	> 100	> 100	> 100	> 100	> 100	> 100
COc1ccc(N=NN2CCCC2)cc1	> 100	> 100	> 100	39.3	47.7	> 100	> 100	–	> 100	> 100	56.6	> 100
N#Cc1nn(-c2ccc(Cl)cc2)c(N)c2c(=N)n3nc(-c4ccccc4)cc3nc12	0.0134	> 33.8	> 100	–	–	–	> 100	–	–	> 100	> 100	> 100
C=C1C(=O)O[C@H]2C1C[C@@H](O)[C@@]1(C)OC1CC[C@@]1(C)O[C@H]21 (stereo partly drawn)	30.7	–	32.5	29.2	40.7	60	–	64	> 100	> 100	23.1	–
N#CC(C(=O)c1ccccc1F)c1nc2cc(C(F)(F)F)ccc2s1 (stereo not drawn)	–	63.1	–	69.3	> 100	> 100	> 100	> 100	> 100	–	–	–
